In article PMC5218480 (PLoS ONE, 2017):

System: MV-4-11 cells
Assay: Gene expression microarray analysis (Affymetrix PrimeView) and GSEA
Type: cell-based, human
Set-up: RFU PODN (11730768_x_at) / Fold change /veh PODN (11730768_x_at) / RFU LINC00158 (11744669_a_at) / Fold change /veh LINC00158 (11744669_a_at) / RFU DUSP10 (11751237_a_at) / Fold change /veh DUSP10 (11751237_a_at) / RFU ID3 (11757404_x_at) / Fold change /veh ID3 (11757404_x_at) / RFU PLEKHG5 (11737974_s_at) / Fold change /veh PLEKHG5 (11737974_s_at) / RFU LRRC4B (11730491_at) / Fold change /veh LRRC4B (11730491_at) / RFU GIMAP4 (11747438_a_at) / Fold change /veh GIMAP4 (11747438_a_at) / RFU KRT8 (11758183_x_at) / Fold change /veh KRT8 (11758183_x_at) / RFU CNN1 (11734310_a_at) / Fold change /veh CNN1 (11734310_a_at) / RFU VPS37D (11726825_at) / Fold change /veh VPS37D (11726825_at) / RFU C10orf10 (11716522_x_at) / Fold change /veh C10orf10 (11716522_x_at) / RFU KIR2DL2 /// KIR2DL4 /// KIR2DL5A /// KIR2DL5B /// KIR2DS1 /// KIR2DS2 /// KIR2DS3 /// KIR2DS4 /// KIR3DL3 /// KIR3DL3 /// KIR3DS1 (11738374_at) / Fold change /veh KIR2DL2 /// KIR2DL4 /// KIR2DL5A /// KIR2DL5B /// KIR2DS1 /// KIR2DS2 /// KIR2DS3 /// KIR2DS4 /// KIR3DL3 /// KIR3DL3 /// KIR3DS1 (11738374_at) / RFU C1QL1 (11718748_at) / Fold change /veh C1QL1 (11718748_at) / RFU TMPRSS4 (11747572_a_at) / Fold change /veh TMPRSS4 (11747572_a_at) / RFU HAMP (11756126_x_at) / Fold change /veh HAMP (11756126_x_at) / RFU RNFT2 (11725882_a_at) / Fold change /veh RNFT2 (11725882_a_at) / RFU NR4A2 (11747474_a_at) / Fold change /veh NR4A2 (11747474_a_at) / RFU ABCC12 (11746883_a_at) / Fold change /veh ABCC12 (11746883_a_at) / RFU TMEM136 (11760407_x_at) / Fold change /veh TMEM136 (11760407_x_at) / RFU CLDN22 /// WWC2 (11732394_at) / Fold change /veh CLDN22 /// WWC2 (11732394_at) / RFU HLA-DPB1 (11760878_x_at) / Fold change /veh HLA-DPB1 (11760878_x_at) / RFU SPINT1 (11716480_a_at) / Fold change /veh SPINT1 (11716480_a_at) / RFU GAP43 (11754022_s_at) / Fold change /veh GAP43 (11754022_s_at) / RFU A4GNT (11735810_at) / Fold change /veh A4GNT (11735810_at) / RFU PRB3 (11715151_x_at) / Fold change /veh PRB3 (11715151_x_at) / RFU TUBB4B (11761932_at) / Fold change /veh TUBB4B (11761932_at) / RFU CAPN14 (11732068_a_at) / Fold change /veh CAPN14 (11732068_a_at) / RFU TMCC2 (11721928_a_at) / Fold change /veh TMCC2 (11721928_a_at) / RFU IRGQ (11745062_a_at) / Fold change /veh IRGQ (11745062_a_at) / RFU FAM174B (11720279_a_at) / Fold change /veh FAM174B (11720279_a_at) / RFU TMPRSS4 (11748680_a_at) / Fold change /veh TMPRSS4 (11748680_a_at) / RFU FAM212B (11763350_a_at) / Fold change /veh FAM212B (11763350_a_at) / RFU PLEKHG5 (11743358_a_at) / Fold change /veh PLEKHG5 (11743358_a_at) / RFU ZSCAN30 (11745921_a_at) / Fold change /veh ZSCAN30 (11745921_a_at) / RFU CMKLR1 (11741424_a_at) / Fold change /veh CMKLR1 (11741424_a_at) / RFU LOC101060620 /// MAPK8IP1 (11723275_at) / Fold change /veh LOC101060620 /// MAPK8IP1 (11723275_at) / RFU SPTSSB (11747773_x_at) / Fold change /veh SPTSSB (11747773_x_at) / RFU PRSS12 (11739890_at) / Fold change /veh PRSS12 (11739890_at) / RFU BIN1 (11741810_x_at) / Fold change /veh BIN1 (11741810_x_at) / RFU WNT11 (11732464_a_at) / Fold change /veh WNT11 (11732464_a_at) / RFU C10orf10 (11716521_a_at) / Fold change /veh C10orf10 (11716521_a_at) / RFU C5orf56 (11738089_at) / Fold change /veh C5orf56 (11738089_at) / RFU CYB561 (11721691_x_at) / Fold change /veh CYB561 (11721691_x_at) / RFU ANKRD19P (11752326_a_at) / Fold change /veh ANKRD19P (11752326_a_at) / RFU OR2T12 /// OR2T33 /// OR2T8 (11738714_s_at) / Fold change /veh OR2T12 /// OR2T33 /// OR2T8 (11738714_s_at) / RFU VCAN (11748164_a_at) / Fold change /veh VCAN (11748164_a_at) / RFU JSRP1 (11732532_at) / Fold change /veh JSRP1 (11732532_at) / RFU KRTAP10-11 (11738290_x_at) / Fold change /veh KRTAP10-11 (11738290_x_at) / RFU MYO3A (11730013_a_at) / Fold change /veh MYO3A (11730013_a_at) / RFU EBF3 (11725865_a_at) / Fold change /veh EBF3 (11725865_a_at) / RFU CAMK2N1 (11719241_x_at) / Fold change /veh CAMK2N1 (11719241_x_at) / RFU C5orf56 (11738088_a_at) / Fold change /veh C5orf56 (11738088_a_at) / RFU OLFML3 (11715873_a_at) / Fold change /veh OLFML3 (11715873_a_at) / RFU LOC100653217 /// NTM (11731650_a_at) / Fold change /veh LOC100653217 /// NTM (11731650_a_at) / RFU MAPK11 (11762145_a_at) / Fold change /veh MAPK11 (11762145_a_at) / RFU FIZ1 (11724087_x_at) / Fold change /veh FIZ1 (11724087_x_at) / RFU OASL (11726364_x_at) / Fold change /veh OASL (11726364_x_at) / RFU SOX15 (11748057_x_at) / Fold change /veh SOX15 (11748057_x_at) / RFU CD79A (11719716_a_at) / Fold change /veh CD79A (11719716_a_at) / RFU HIST1H1D (11736915_at) / Fold change /veh HIST1H1D (11736915_at) / RFU CASKIN2 (11723855_a_at) / Fold change /veh CASKIN2 (11723855_a_at) / RFU LOC730098 (11760151_x_at) / Fold change /veh LOC730098 (11760151_x_at) / RFU OR4N2 (11742367_at) / Fold change /veh OR4N2 (11742367_at) / RFU PRRT2 (11749266_a_at) / Fold change /veh PRRT2 (11749266_a_at) / RFU SNX32 (11753110_a_at) / Fold change /veh SNX32 (11753110_a_at) / RFU CDHR5 (11726645_a_at) / Fold change /veh CDHR5 (11726645_a_at) / RFU RCAN1 (11760418_a_at) / Fold change /veh RCAN1 (11760418_a_at) / RFU FAM167A (11723789_a_at) / Fold change /veh FAM167A (11723789_a_at) / RFU FAM26E (11764081_at) / Fold change /veh FAM26E (11764081_at) / RFU ISYNA1 (11749810_s_at) / Fold change /veh ISYNA1 (11749810_s_at) / RFU ACY1 (11761880_at) / Fold change /veh ACY1 (11761880_at) / RFU 11764098_at / Fold change /veh 11764098_at / RFU SAMD14 (11745864_x_at) / Fold change /veh SAMD14 (11745864_x_at) / RFU NPB (11741838_a_at) / Fold change /veh NPB (11741838_a_at) / RFU TMPRSS6 (11731388_a_at) / Fold change /veh TMPRSS6 (11731388_a_at) / RFU KRTAP10-2 (11738614_at) / Fold change /veh KRTAP10-2 (11738614_at) / RFU ARHGAP8 /// PRR5-ARHGAP8 (11727945_x_at) / Fold change /veh ARHGAP8 /// PRR5-ARHGAP8 (11727945_x_at) / RFU KRTAP5-7 /// NADSYN1 (11734609_at) / Fold change /veh KRTAP5-7 /// NADSYN1 (11734609_at) / RFU RASL12 (11751679_a_at) / Fold change /veh RASL12 (11751679_a_at) / RFU CDKN2B (11736163_a_at) / Fold change /veh CDKN2B (11736163_a_at) / RFU PRF1 (11729649_at) / Fold change /veh PRF1 (11729649_at) / RFU, ZNF638 /// ZNF638-IT1 / Fold change vs veh, ZNF638 /// ZNF638-IT1 / RFU, PANK3 / Fold change vs veh, PANK3 / RFU, SH3YL1 / Fold change vs veh, SH3YL1 / RFU, ZEB2 / Fold change vs veh, ZEB2 / RFU, NRIP1 / Fold change vs veh, NRIP1 / RFU, PTTG1IP / Fold change vs veh, PTTG1IP / RFU, CAPN2 / Fold change vs veh, CAPN2 / RFU, MED14 / Fold change vs veh, MED14 / RFU, SNORA58 / Fold change vs veh, SNORA58 / RFU, C1orf63 / Fold change vs veh, C1orf63 / RFU, LRRFIP1 / Fold change vs veh, LRRFIP1 / RFU, NDUFAF7 / Fold change vs veh, NDUFAF7 / RFU, SLC12A2 / Fold change vs veh, SLC12A2 / RFU, IBTK / Fold change vs veh, IBTK / RFU, ESF1 / Fold change vs veh, ESF1 / Fold change vs veh, TMEM50B / RFU, TAOK1 / Fold change vs veh, TAOK1 / RFU, ACBD3 / Fold change vs veh, ACBD3 / RFU, TMA16 / Fold change vs veh, TMA16 / RFU, RWDD3 / Fold change vs veh, RWDD3 / RFU, BCAT1 / Fold change vs veh, BCAT1 / RFU, EDEM3 / Fold change vs veh, EDEM3 / RFU, TMEM33 / Fold change vs veh, TMEM33 / RFU, WDR75 / Fold change vs veh, WDR75 / RFU, AHCTF1 / Fold change vs veh, AHCTF1 / RFU, TFRC / Fold change vs veh, TFRC / RFU, ZDHHC17 / Fold change vs veh, ZDHHC17 / RFU, NOM1 / Fold change vs veh, NOM1 / RFU, ARL8B / Fold change vs veh, ARL8B / RFU, ZBTB11 / Fold change vs veh, ZBTB11 / RFU, TAMM41 / Fold change vs veh, TAMM41 / RFU, KIAA1704 /// LOC100996395 / Fold change vs veh, KIAA1704 /// LOC100996395 / RFU, ING1 / Fold change vs veh, ING1 / RFU, TRMT61B / Fold change vs veh, TRMT61B / RFU, FUBP3 / Fold change vs veh, FUBP3 / RFU, TP53 / Fold change vs veh, TP53 / RFU, TNKS2 / Fold change vs veh, TNKS2 / RFU, ZFP14 / Fold change vs veh, ZFP14 / RFU, ACTR2 / Fold change vs veh, ACTR2 / RFU, PPP3R1 / Fold change vs veh, PPP3R1 / RFU, PIK3R1 / Fold change vs veh, PIK3R1 / RFU, HNRNPA1 / Fold change vs veh, HNRNPA1 / RFU, RNF170 / Fold change vs veh, RNF170 / RFU, ZNF28 / Fold change vs veh, ZNF28 / RFU, RNGTT / Fold change vs veh, RNGTT / RFU, OGT / Fold change vs veh, OGT / RFU, BRD1 / Fold change vs veh, BRD1 / RFU, MARS / Fold change vs veh, MARS / RFU, ZNF655 / Fold change vs veh, ZNF655 / RFU, FAHD1 / Fold change vs veh, FAHD1 / RFU, BDP1 / Fold change vs veh, BDP1 / RFU, LRRCC1 / Fold change vs veh, LRRCC1 / RFU, ARID1A / Fold change vs veh, ARID1A / RFU, ZNF146 / Fold change vs veh, ZNF146 / RFU, ZNF330 / Fold change vs veh, ZNF330 / RFU, GPN3 / Fold change vs veh, GPN3 / RFU, C9orf123 / Fold change vs veh, C9orf123 / RFU, N4BP2L2 / Fold change vs veh, N4BP2L2 / RFU, ARFIP1 / Fold change vs veh, ARFIP1 / RFU, FAM179B / Fold change vs veh, FAM179B / RFU, BCL10 / Fold change vs veh, BCL10 / RFU, UHRF1BP1L / Fold change vs veh, UHRF1BP1L / RFU, BET1 / Fold change vs veh, BET1 / RFU, CNOT2 / Fold change vs veh, CNOT2 / RFU, ZNF268 / Fold change vs veh, ZNF268 / Fold change vs veh, ZNF507 / RFU, DGCR2 / Fold change vs veh, DGCR2 / RFU, WDSUB1 / Fold change vs veh, WDSUB1 / Fold change vs veh, HSP90B1 /// MIR3652 / RFU, ADSS / Fold change vs veh, ADSS / RFU, GK / Fold change vs veh, GK / RFU, ZNF148 / Fold change vs veh, ZNF148 / RFU, TAF9 / Fold change vs veh, TAF9 / RFU, SLC1A5 / Fold change vs veh, SLC1A5 / RFU, SLMO2 / Fold change vs veh, SLMO2 / RFU, ABCC4 / Fold change vs veh, ABCC4 / RFU, LOC101060439 /// RAP1B / Fold change vs veh, LOC101060439 /// RAP1B / RFU, RFX7 / Fold change vs veh, RFX7 / RFU, GTPBP10 / Fold change vs veh, GTPBP10 / RFU, CNEP1R1 / Fold change vs veh, CNEP1R1 / RFU, BIVM-ERCC5 /// ERCC5 / Fold change vs veh, BIVM-ERCC5 /// ERCC5 / RFU, ILF3 / Fold change vs veh, ILF3 / RFU 11762660_at / Fold change /veh 11762660_at / RFU VCAN (11757783_s_at) / Fold change /veh VCAN (11757783_s_at) / RFU DDX43 (11728927_at) / Fold change /veh DDX43 (11728927_at) / RFU KRT8 (11758188_x_at) / Fold change /veh KRT8 (11758188_x_at) / RFU NKD1 (11759106_at) / Fold change /veh NKD1 (11759106_at) / RFU SRD5A1 (11742802_a_at) / Fold change /veh SRD5A1 (11742802_a_at) / RFU TPSAB1 /// TPSB2 (11721975_s_at) / Fold change /veh TPSAB1 /// TPSB2 (11721975_s_at) / RFU GSTM3 (11746129_a_at) / Fold change /veh GSTM3 (11746129_a_at) / RFU IL23R (11737362_x_at) / Fold change /veh IL23R (11737362_x_at) / RFU TMEM51 (11727254_a_at) / Fold change /veh TMEM51 (11727254_a_at) / RFU PIWIL2 (11732686_x_at) / Fold change /veh PIWIL2 (11732686_x_at) / RFU ORM1 (11744905_x_at) / Fold change /veh ORM1 (11744905_x_at) / RFU CCDC152 (11743942_at) / Fold change /veh CCDC152 (11743942_at) / RFU ECM1 (11717891_a_at) / Fold change /veh ECM1 (11717891_a_at) / RFU IL23R (11748794_a_at) / Fold change /veh IL23R (11748794_a_at) / RFU TNFAIP8L3 (11732012_x_at) / Fold change /veh TNFAIP8L3 (11732012_x_at) / RFU MBOAT4 (11741988_at) / Fold change /veh MBOAT4 (11741988_at) / RFU 11764193_at / Fold change /veh 11764193_at / RFU TMEM53 (11763286_at) / Fold change /veh TMEM53 (11763286_at) / RFU MAGEB2 (11727129_at) / Fold change /veh MAGEB2 (11727129_at) / RFU TMEM200A (11744735_a_at) / Fold change /veh TMEM200A (11744735_a_at) / RFU CCDC152 (11751479_a_at) / Fold change /veh CCDC152 (11751479_a_at) / RFU FAM211A (11726209_a_at) / Fold change /veh FAM211A (11726209_a_at) / RFU RGS16 (11746705_a_at) / Fold change /veh RGS16 (11746705_a_at) / RFU VCAN (11755009_s_at) / Fold change /veh VCAN (11755009_s_at) / RFU RHOB (11743442_s_at) / Fold change /veh RHOB (11743442_s_at) / RFU RGS16 (11720943_a_at) / Fold change /veh RGS16 (11720943_a_at) / RFU RGS16 (11720944_at) / Fold change /veh RGS16 (11720944_at) / RFU, VPS4B / Fold change vs veh, VPS4B / RFU, CREB1 / Fold change vs veh, CREB1 / RFU, DNAJC13 / Fold change vs veh, DNAJC13 / RFU, GNAQ / Fold change vs veh, GNAQ / RFU, CDK5R1 / Fold change vs veh, CDK5R1 / RFU, ZRANB3 / Fold change vs veh, ZRANB3 / RFU, CUL4A / Fold change vs veh, CUL4A / RFU, CCNY / Fold change vs veh, CCNY / RFU, UFL1 / Fold change vs veh, UFL1 / RFU, COG3 / Fold change vs veh, COG3 / RFU, DIAPH2 / Fold change vs veh, DIAPH2 / RFU, SKA2 / Fold change vs veh, SKA2 / RFU, AFF3 / Fold change vs veh, AFF3 / RFU, LMF1 / Fold change vs veh, LMF1 / RFU, IPO11 / Fold change vs veh, IPO11 / RFU, DFFB / Fold change vs veh, DFFB / RFU, FOXP1 / Fold change vs veh, FOXP1 / RFU, CARD8 / Fold change vs veh, CARD8 / RFU, STRN3 / Fold change vs veh, STRN3 / RFU, ADK / Fold change vs veh, ADK / RFU, RASSF2 / Fold change vs veh, RASSF2 / RFU, WIPF1 / Fold change vs veh, WIPF1 / RFU, LARP1B / Fold change vs veh, LARP1B / RFU, RASA1 / Fold change vs veh, RASA1 / RFU, RB1 / Fold change vs veh, RB1 / RFU, PPFIA1 / Fold change vs veh, PPFIA1 / RFU, MAT2A / Fold change vs veh, MAT2A / RFU, CCT5 / Fold change vs veh, CCT5 / RFU, WDR92 / Fold change vs veh, WDR92 / RFU, CUX1 / Fold change vs veh, CUX1 / RFU, TTC7A / Fold change vs veh, TTC7A / RFU, TMEM135 / Fold change vs veh, TMEM135 / RFU, DEPTOR / Fold change vs veh, DEPTOR / RFU, CPM / Fold change vs veh, CPM / RFU, DNAJB6 / Fold change vs veh, DNAJB6 / RFU, CACNA2D3 / Fold change vs veh, CACNA2D3 / RFU, DTX4 / Fold change vs veh, DTX4 / RFU, TFCP2 / Fold change vs veh, TFCP2 / RFU, GMCL1 /// GMCL1P1 / Fold change vs veh, GMCL1 /// GMCL1P1 / RFU, AEBP2 / Fold change vs veh, AEBP2 / RFU, SNHG1 /// SNORD22 /// SNORD25 /// SNORD26 /// SNORD27 /// SNORD28 /// SNORD29 /// SNORD31 / Fold change vs veh, SNHG1 /// SNORD22 /// SNORD25 /// SNORD26 /// SNORD27 /// SNORD28 /// SNORD29 /// SNORD31 / Fold change (Aza/veh), C12orf56 (ProbeSet 11735607_a_at) / Fold change (ACY-1035/veh), C12orf56 (ProbeSet 11735607_a_at) / Fold change (Aza/veh), FGFR1OP (ProbeSet 11751329_s_at) / Fold change (ACY-1035/veh), FGFR1OP (ProbeSet 11751329_s_at) / Fold change (Aza/veh), VPS36 (ProbeSet 11739960_a_at) / Fold change (ACY-1035/veh), VPS36 (ProbeSet 11739960_a_at) / RFU SYPL1 (11715823_x_at) / Fold change /veh SYPL1 (11715823_x_at) / RFU IGFBP7 (11715501_s_at) / Fold change /veh IGFBP7 (11715501_s_at) / RFU REEP3 (11722064_at) / Fold change /veh REEP3 (11722064_at) / RFU IGLL1 (11728026_x_at) / Fold change /veh IGLL1 (11728026_x_at): dose or concentration left out as unconfirmed
Settings: MV-4-11 cells, 48 hours

Nc1ncn([C@@H]2O[C@H](CO)[C@@H](O)[C@H]2O)c(=O)n1 [azacitidine]
Fold change /veh MAGEB2 (11727129_at): 2.40
